“And” between values parts separate entries of the source, which are not always exact repeats. Identical values can stand only once.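 Test compounds were applied to cells in 96-well plates for 48 hours at 5 doses. GI50 = concentration required for 50% inhibition of growth. TGI: total growth inhibition.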 Some results are limits rather than exact numbers.

Assay in all cases: NCI tumour cell line growth inhibition, 48 h
In assay [1] the test system is NCI-H23 lung.
Assay [2] relates to OVCAR-3 ovarian.
In assay [3] the test system is SF-295 CNS.
The test system of assay [4] is SK-MEL-5 melanoma.
In assay [5] the test system is COLO 205 colon.
Assay [6] concerns NCI-H522 lung.
The test system of assay [7] is NCI/ADR-RES ovarian.
The test system of assay [8] is SF-268 CNS.
The subject of assay [9] is MOLT-4 leukemia.
Assay [10] concerns HCT-15 colon.
Assay [11] has as its system HOP-62 NSCLC.
Assay [12] has as its system HCC-2998 colon.
The test system of assay [13] is EKVX NSCLC.
In assay [14] the test system is UACC-62 melanoma.
The subject of assay [15] is MCF7 breast.
In assay [16] the test system is MDA-MB-231 breast.

For the compound `CCCCCCCCC#CCCCCCCC(F)C(=O)O` (centres undefined), the TGI in assay [1], in assay [2], in [3], in assay [4], in assay [5] and in assay [6] was above 100 µM in each case. Also, the TGI in [7], in assay [8], in assay [9], in assay [10], in [11] and in assay [12] was above 100 µM in each case. The compound further returned a TGI in assay [13] above 100 µM.

Turning to `O=C1C[C@@H]2[C@@H](C=CC23CCCC3)N1O`, the TGI in [1], in [2], in [3], in assay [4], in assay [5] and in [14] was above 100 µM throughout. The TGI in assay [6], in assay [8], in assay [9], in assay [10], in assay [11] and in assay [12] was above 100 µM in each case. In assay [13], this compound had a TGI above 100 µM.

As to `COc1cccc(C2c3cc4c(cc3OC(N3CCCC3)C2c2ccccc2)OCO4)c1O` (centres undefined), the TGI in [1] was determined as 36.2 µM; in assay [2], 27.8 µM; in assay [3] it was 30.3 µM; in assay [4], 22.6 µM; in assay [5], 27.3 µM; in assay [14], 47.2 µM. Further, the TGI in assay [6] is 58.4 µM; in assay [7], 67.2 µM; in assay [15], 32.6 µM; in assay [8] it was 46.4 µM; in [9] it was 21.5 µM; in assay [10], 37.3 µM. Moreover, the values for the TGI in assay [11], in assay [12] and in [13] were 47.6 µM, 23.9 µM and 73.3 µM, respectively.

Consider `COc1cc2c(c(OC)c1OC)[C@@H]1CCCCC[C@@H]1CCC2=O`, for which the TGI in assay [1] is above 100 µM; in [2], above 100 µM; in [3], above 100 µM; in assay [4], above 100 µM; in assay [5], above 77.3 µM; in assay [14], above 100 µM. The TGI in [6] is above 100 µM; in [8], above 100 µM; in [9] it was above 64.7 µM; in [10], above 100 µM; in assay [11] it was above 100 µM; in assay [12], above 100 µM. In assay [13], the TGI is above 100 µM.

In the case of `O=C1CSc2ccnc(=O)n21`, the TGI in assay [1], in assay [4], in assay [5], in [14], in assay [6] and in assay [15] was above 100 µM throughout. For the same compound, the TGI in assay [8], in assay [9], in assay [11], in [12] and in assay [13] was above 100 µM throughout.

For `COC(=O)C(C(=O)C(=O)Nc1nc2ccc(OC)cc2s1)c1cnc2ccccc2n1` (centres undefined), the TGI in assay [1], in assay [2], in [3], in [4], in assay [5] and in [14] was above 100 µM in each case. In addition, the TGI in [6], in assay [8], in assay [9], in [10], in assay [11] and in assay [12] was above 100 µM in each case. Also, the TGI in [13] is above 100 µM.

With `COc1cc(CNc2ccc(C)cc2)cc(OC)c1OC`, the TGI in assay [1] was 3.08 µM; in assay [2] it was 0.597 µM; in [3] it was 0.439 µM; in assay [4], above 100 µM; in assay [5], 0.385 µM and 1.11 µM; in assay [14], above 100 µM. The TGI in assay [6] was 0.435 µM and 0.83 µM; in assay [8], above 90.3 µM; in assay [9], above 100 µM; in [10], 9.02 µM and > 37.2 µM; in assay [11], above 100 µM; in assay [12], 1.16 µM and 2.48 µM. This compound registered a TGI in assay [13] above 100 µM. The GI50 in [3] was 0.155 µM and 0.333 µM; in [14], 0.12 µM and 0.57 µM; in assay [10], 0.1 µM and 0.275 µM; in assay [12], 0.124 µM and 0.365 µM.

Take `COc1cnc2oc3ccc(O)cc3c2c1-c1ccccc1`: the TGI in [1], in assay [2], in [3], in [4], in assay [5] and in assay [6] was above 100 µM throughout. In addition, the TGI in assay [7], in [15], in assay [8], in assay [9], in assay [10] and in assay [11] was above 100 µM in each case. The values for the TGI in assay [12] and in assay [13] were 92.1 µM and above 100 µM, respectively.

Consider `Cc1nsc2cc(Cl)n(C)c(=O)c12`, for which the TGI in assay [1] is above 100 µM; in assay [2] it was above 100 µM; in assay [4] it was above 100 µM; in assay [5], above 100 µM; in [6], 69.3 µM; in [8], above 100 µM. Further, the TGI in assay [9], in assay [10], in assay [11], in assay [12] and in [13] was above 100 µM each time.

For `O=C(CC(=O)n1nc(-c2ccccc2)c(N=Nc2ccc([N+](=O)[O-])cc2)c1-c1ccccc1)Nc1ccc(Cl)cc1`, the TGI was above 100 µM in assay [1]; 66.1 µM in assay [2]; above 100 µM in [3]; 22.3 µM in assay [4]; 34.9 µM in assay [5]; above 100 µM in [14]. The TGI is above 100 µM in assay [6]; above 100 µM in assay [8]; above 100 µM in [9]; 42.7 µM in [11]; 91.4 µM in [12]; above 100 µM in assay [13].

As for `COc1cc(Br)c(/C=N/N=C(\N)NO)cc1OC`, the TGI was 69 µM in [1]; above 100 µM in assay [2]; above 100 µM in assay [3]; 21.2 µM in assay [4]; 25.6 µM in assay [5]; 32.3 µM in assay [14]. The TGI in assay [6] was 37.5 µM; in [8], 30.6 µM; in [9], above 100 µM; in assay [10] it was above 100 µM; in assay [11], 70.3 µM; in assay [12], 26.3 µM. Besides, in assay [13], the TGI is above 100 µM.

As for `C1=C(c2ccccc2)NC2=N[C@H]3CCCC[C@@H]3N2C1c1ccccc1` (some centres undefined), the TGI came to 25.8 µM in assay [1]; 25.8 µM in assay [2]; 25.7 µM in [3]; 30.2 µM in assay [16]; 27.9 µM in assay [4]; 25.2 µM in assay [5]. Also, the TGI came out at 28.6 µM in [14]; 28.7 µM in [7]; 51.7 µM in [8]; 28.3 µM in assay [9]; 23.5 µM in assay [10]; 28.4 µM in [12]. In assay [13], this compound registered a TGI of 29.3 µM.

Regarding `COc1cc(Br)c(C=Nc2cccc3ccc(OS(=O)(=O)c4ccc([N+](=O)[O-])cc4)cc23)cc1OC`, the TGI in [1], in assay [2], in assay [3], in [4], in [5] and in [14] was above 100 µM throughout. The TGI in assay [6], in assay [8], in [9], in assay [10], in [11] and in [12] was above 100 µM in each case. Moreover, the TGI in assay [13] is above 100 µM.

Consider `COc1cc(C(C)c2cc3c(cc2OCCCCCOc2cc4c(cc2C(C)c2cc(OC)c(OC)c(OC)c2)OCO4)OCO3)cc(OC)c1OC` (centres undefined), for which the TGI in assay [1], in assay [2], in [3], in assay [4], in assay [14] and in assay [6] was above 100 µM each time. Besides, the TGI in [8], in [9], in assay [10], in [11], in assay [12] and in assay [13] was above 100 µM each time.

Turning to `CN(C)/C=N/S(=O)(=O)c1nn2c(C=O)c(-c3ccc(-c4ccccc4)cc3)nc2s1`, the TGI was 4.55 µM in assay [1]; 3.73 µM in assay [2]; 42.5 µM in [3]; 7.35 µM in assay [16]; 3.04 µM in assay [4]; 6.45 µM in assay [14]. Moreover, the TGI in [6] was 1.6 µM; in assay [7] it was above 86.8 µM; in assay [8], 6.23 µM; in assay [10], 7.75 µM; in [11], 22.9 µM; in [12], 11.7 µM. In assay [13], this compound had a TGI of 19.8 µM.

Turning to `COc1ccc(C)cc1NC(=S)N/N=C/c1ccco1`, the TGI in [1] is above 100 µM; in assay [2] it was above 100 µM; in assay [3], above 100 µM; in assay [4] it was 32.9 µM; in assay [5] it was 65.5 µM; in assay [14], above 100 µM. Moreover, the TGI in assay [6] is 69.2 µM; in [7] it was above 100 µM; in assay [15] it was above 100 µM; in [8] it was above 100 µM; in assay [9] it was above 100 µM; in [10], above 100 µM. Moreover, the results for the TGI in assay [11], in [12] and in [13] were above 100 µM, above 100 µM and 64.3 µM, respectively.

For the compound `NC(N)=N/N=C/c1c(Cl)nc2n1CCS2`, the TGI in assay [1], in [2], in [3], in [5], in [14] and in assay [6] was above 100 µM each time. For the same compound, the TGI in [7], in assay [15], in assay [8], in [9], in [10] and in [11] was above 100 µM in each case. The TGI in [12] and in assay [13] was above 100 µM in each case.

Take `c1ccc(Nc2nnc(-c3ccccc3Nc3ccccc3-c3nnc(Nc4ccccc4)s3)s2)cc1`: the TGI in assay [1], in [2], in [3], in [4], in assay [5] and in assay [14] was above 100 µM throughout. Moreover, the TGI in assay [6], in [7], in [15], in assay [8], in [9] and in [10] was above 100 µM in each case. In addition, the TGI in assay [11], in assay [12] and in [13] was above 100 µM in each case.

Turning to `CC(=O)NC1=C(NCCO)C(=O)c2ccccc2C1=O`, the TGI in [1], in assay [2], in assay [3], in assay [4], in assay [5] and in assay [14] was above 50 µM each time. For the same compound, the TGI in assay [6], in assay [8], in assay [9], in assay [10], in [11] and in assay [12] was above 50 µM throughout. The TGI in [13] was above 50 µM.

Regarding `CN1CC[C@@]2(c3cccc(O)c3)CC(=O)/C(=C/c3ccc(Cl)c(Cl)c3)[C@H]1C2`, the TGI turned out to be 15.9 µM in assay [1]; 4.07 µM in assay [2]; 3.86 µM in [3]; 5.53 µM in assay [4]; 7.09 µM in assay [7]; 7.01 µM in [8]. Besides, the TGI in assay [9] was determined as 8.47 µM; in assay [10], 3.77 µM; in [11], 6.2 µM; in [12], 3.37 µM; in assay [13], 21 µM.

For the origin of these results see PubChem BioAssay (NCI).
